Legend:
Assay type in all cases: functional
[1] = tested on: Mus musculus; experiment: Increase in liver SOD activity of Ehrlich's ascites carcinoma xenografted Swiss Albino mouse at 20 mg/kg
[2] = tested on: Mus musculus; experiment: Increase in life span of Ehrlich's ascites carcinoma xenografted Swiss Albino mouse at 20 mg/kg
[3] = tested on: Mus musculus; experiment: Effect on hydroperoxide levels in liver of Ehrlich's ascites carcinoma xenografted Swiss Albino mouse at 20 mg/kg measured per 100 g tissue
[4] = tested on: Mus musculus; experiment: Increase in mean survival time of Ehrlich's ascites carcinoma xenografted Swiss Albino mouse at 20 mg/kg
[5] = tested on: Mus musculus; experiment: Effect on GSH content in liver of Ehrlich's ascites carcinoma xenografted Swiss Albino mouse at 20 mg/kg measured per 100 g tissue
[6] = tested on: Mus musculus; experiment: Effect on TBARS levels in liver of Ehrlich's ascites carcinoma xenografted Swiss Albino mouse at 20 mg/kg measured per 100 g tissue
[7] = tested on: Mus musculus; experiment: Increase in liver catalase activity of Ehrlich's ascites carcinoma xenografted Swiss Albino mouse at 20 mg/kg
[8] = tested on: Mus musculus; experiment: Increase in liver glutathione peroxidase activity of Ehrlich's ascites carcinoma xenografted Swiss Albino mouse at 20 mg/kg
[9] = tested on: Mus musculus; experiment: Increase in liver GST activity of Ehrlich's ascites carcinoma xenografted Swiss Albino mouse at 20 mg/kg
[10] = tested on: Mus musculus; experiment: Decrease in body weight of Ehrlich's ascites carcinoma xenografted Swiss albino mouse at 20 mg/kg

With `O=c1[nH]cc(F)c(=O)[nH]1` [FLUOROURACIL] the Activity [1] was 3.96 U/mg, the Activity [2] was 119.49% and the Activity [3] was 0.85 mmol. For the same compound, the MST [4] was 39.5 days, the Activity [5] was 3.65 mmol and the Activity [6] was 0.99 mmol. The Activity [7] was 20.4 U/mg, the Activity [8] was 6.97 U/mg and the Activity [9] was 16.2 U/mg. The Activity [10] was 25.2 g.
